Test results: patent US20140287495A1, “Methods of Inducing Differentiation of Stem Cells” (ES Cell International Pte LTD, priority 2001, published 2014)

How the values were obtained:
[1] = tested on: Brachyury T; test: Northern blot of Brachyury T expression in P19EC aggregates; assay type: cell-based, mouse; settings: FIG. 10B
Experimental: (§1) END-2 cells and hES cells were cultured as described in Example 1. The hES2 cell line from ES Cell International Pte Ltd was used in all experiments. […] Co-cultures were then grown for up to 6 weeks and scored for the presence of areas of beating muscle from 5 days onwards. HepG2 cells, a carcinoma cell line resembling liver parenchymal cells (Knowles et al, (1980) Science 209:497-9), were cultured in DMEM plus 10% FCS and passaged twice weekly. […] Hanging-drop cultures of P19 EC cells were initiated and maintained in DMEM/Ham's F12 (1:1), as described previously (Mummery et al, 1991), using regular FCS while bulk production of P19 embryoid bodies in the presence or absence of END-2 conditioned medium for isolation of RNA for Northern blotting, was in the presence of charcoal-stripped FCS, as described (Mummery et al, 1991) to reduce background levels of cardiomyocyte differentiation caused by lipophilic substances possibly with retinoid-like activity in FCS. P19 clone 6 were cultured in aMEM and treated aMEM conditioned by END-2 cells. For electrophysiology, beating aggregates were dissociated using collagenase and replated on gelatine-coated coverslips.
RNA was isolated from P19 aggregates and poly A+RNA selected, as described previously (Mummery et al, 1990, Dev. Biol. 142: 406-413).
Background differentiation levels are reduced virtually to zero if the FCS is passed over an activated charcoal column (DCC-FCS) to remove residual retinoids; in addition, differentiation is blocked by activin (van den Eijnden-van Raaij et al, 1991, Mech. Dev. 33:157-166). […] The P19EC assay system was preferred because these cells are feeder independent for undifferentiated growth. […] Moreover, the induction of Brachyury T is blocked by the additional presence of activin (FIG. 10B), consistent with its ability to block the formation of beating muscle in aggregates. The transient expression of Brachyury T is similar to that observed during early mesoderm differentiation during gastrulation of the mouse embryo.

[2] = tested on: P19 EC cells; test: Induction of beating muscle in replated P19 EC aggregates (hanging-drop assay); assay type: cell-based, mouse; settings: P19EC aggregates, day 10
Experimental: as §1, with “coverslips. […]” for “coverslips.”

[3] = tested on: hES-derived cardiomycytes; test: Beating of hES-derived cardiomyocytes in response to pharmacological agonists; assay type: cell-based, human; settings: hES2/END-2 co-culture derived cardiomyocytes; basal beating 45-60 times per minute
Experimental: as §1
The majority of the experiments described here were carried out using the hES2 cell line (Reubinoff et al, 2000). […] Oct-4 expression thus correlated with phenotypic characteristics of undifferentiated cells. hES cells were subcultured by transferring small clumps of undifferentiated cells either to new, mit.C-treated MEFs or confluent cultures of mit.C-treated END-2 cells. After approximately 5d under these conditions, epithelial cells became evident which over the next few days become fluid-filled cysts (FIG. 1A). […] In addition, by 10 d areas of rhythmically contracting cells in more solid aggregates become evident (FIG. 1A,3e) with a variety of overall morphologies (FIG. 1B,3e). […]

[4] = tested on: P19 EC cells; settings: END-2 conditioned medium induced differentiation; cited from earlier work

C[S+](C)[O-] [DMSO, dimethyl sulphoxide]
Brachyury T (early mesoderm marker) expression ([1]; aggregation phase, first 3 days, Northern blot): induced | aggregates beating [2]: All aggregates beat

CC(C)NCC(O)c1ccc(O)c(O)c1 (centres unmarked) [isoprenaline]
beating of hES-derived cardiomyocytes in response to agonist [3]: upregulated

CNC[C@H](O)c1cccc(O)c1 [phenylephrine]
beating of hES-derived cardiomyocytes in response to agonist [3]: upregulated

activin: factor that blocks Brachyury T induction and the formation of beating muscle in aggregates
cardiomyocyte differentiation of P19 EC aggregates in presence of activin [4]: blocked | DMSO induced Brachyury T expression in presence of activin ([1]; P19EC aggregates): blocked | END-2 CM induced Brachyury T expression in additional presence of activin ([1]; P19EC aggregates): blocked

C[N+](C)(C)CCOC(N)=O [carbachol]
beating of hES-derived cardiomyocytes in response to agonist [3]: upregulated
